The results in this text go back to patent US11654161B2, “Compositions and methods for neuralgenesis” (priority 2016, dated 2023).

One data set deals with NDUFB1, ATP5C1, ATP50. The data set can be described thus: Real time RT-PCR of BMPS after toxicant exposure: mitochondrial function genes. In kind it is cell-based, human. As to conditions: for Expression of genes related to mitochondrial function (NDUFB1, ATP5C1, ATP50): 24 hours exposure, 5 μM rotenone, 1000 μM MPP+; for Mitochondrial function genes (NDUFB1, ATP5C1, ATP50), MPP+ versus rotenone: BMPS treated with MPP+ or rotenone. As to the method:
(§1) Total RNA was extracted from aggregates every week up to 8 weeks of differentiation using Tripure (Roche, Switzerland) according to Chomczynski and Sacchi (1987). The same RNA extraction method was used to isolate RNA after toxicant treatment. RNA quantity and purity was determined using NanoDrop 2000c (Thermo Scientific). One microgram of RNA was reverse-transcribed using the M-MI V Promega Reverse Transcriptase (Promega) according to the manufacturer's recommendations. For miRNA reverse-transcription 60 ng of RNA were reverse transcribed using TaqMan microRNA Reverse transcription kit in combination with miRNA specific stem-loop primers, which are a part of TaqMAn microRNA expression assay. Upto eight stem-loop primers were multiplexed in one reaction.
(§2) The expression of genes was evaluated using specific Taqman® gene expression assays (Life Technologies). miRNA expression was analyzed using TaqMAn microRNA expression assay in combination with TaqMan miRNA Reverse Transcription kit using protocol described in [77]. […] Real time RT-PCRs were performed using a 7500 Fast Real Time system machine (Applied Biosystems). Fold changes were calculated using the 2(−ΔΔCt) method. β-actin and 18s were used as a housekeeping genes for mRNA and RNU44 for miRNA. There were no statistically significant differences in expression for β-actin, 18s, and RNU44. Data were presented as mean±SD, normalized to housekeeping genes and week 0.
(In general: Quantitative PCR measures a nucleic acid by following its amplification.)

Another data set concerns KEAP1. The data set can be described thus: Real time RT-PCR of BMPS after toxicant exposure: KEAP1. In kind it is cell-based, human. As to conditions: 24 h exposure to 1 mM MPP+. From the text: In one embodiment, the model described herein is useful for studying Parkinson's disease (PD). Traditionally, PD has been described as a pre-synaptic degenerative process that affects dopaminergic neurons and induces a fundamental motor disorder, however, non-motor symptoms can also be present. Research in Parkinson's disease is experiencing an upswing at the moment, owing to a lack of curative drugs for the large number of patients. […] These model toxins are mainly used in mice and primates (and less in cell cultures) to model a disease state resembling PD. Human neurons, which would be most relevant, are not usually available and existing cell lines are only very poor substitutes. […]
(§3) Total RNA was extracted from aggregates every week up to 8 weeks of differentiation using Tripure (Roche, Switzerland) according to Chomczynski and Sacchi (1987). […] RNA quantity and purity was determined using NanoDrop 2000c (Thermo Scientific). […]
(§4) The expression of genes was evaluated using specific Taqman® gene expression assays (Life Technologies). miRNA expression was analyzed using TaqMAn microRNA expression assay in combination with TaqMan miRNA Reverse Transcription kit using protocol described in [77]. […] Fold changes were calculated using the 2(−ΔΔCt) method. β-actin and 18s were used as a housekeeping genes for mRNA and RNU44 for miRNA. […]

The next data set deals with dopaminergic neurons. As to conditions: for Alterations in other neurofilament 200-positive neurons: cytotoxic concentrations: 10 μM rotenone; for General cytotoxicity and effect on other neuronal types at higher concentrations: up to 50 μM rotenone, up to 5000 μM MPP+. As to the method:
Initially, cytotoxicity experiments were performed to estimate sub-cytotoxic concentrations of these two compounds affecting only dopaminergic neurons (FIGS. 4A and 4C). […] Reactive oxygen species (ROS) were measured in the cellular medium using the OxiSelect™ In Vitro ROS/RNS Assay Kit (Cellbiolabs, San Diego, Calif.) as an indication of oxidative stress. […] Real time RT-PCR was performed in order to determine effects of both chemicals on genes related to PD, mitochondrial dysfunction and oxidative stress.
BMPS aggregates were collected at 2, 4 and 8 weeks. BMPS were fixed in 4% paraformaldehyde for 1 hour, washed 3 times in PBS, then incubated for 1 hour in blocking solution consisting of 5% normal goat serum (NGS) in PBS with 0.4% TritonX (Sigma). BMPS were then incubated at 4° C. for 48 hours with a combination of primary antibodies (Table 2) diluted in PBS containing 3% NGS and 0.1% TritonX. BMPS were washed in PBS 3 times after which they were incubated with the appropriate fluorophore-tagged secondary antibody for 1 hour in PBS with 3% NGS at room temperature. Double immunostaining was visualized using the proper combination of secondary antibodies (e.g., goat anti-rabbit secondary antibody conjugated with Alexa 594 and goat anti-mouse secondary antibody conjugated with Alexa 488 (Molecular Probes). Nuclei were counterstained with DRAQ5 dye (Cell Signaling; 1:5000 in 1×PBS) or NucRed Live (Molecular Probes) for 15 minutes before mounted on slides with coverslips and Prolong Gold antifade reagent (Molecular Probes); BMPS used as negative controls for immunostaining were processed omitting the primary antibody. Images were taken using a Zeiss UV-LSM 510 confocal microscope. The experiments were performed in duplicates; at least three different fields of view were analyzed for each combination of antibodies. 3D reconstruction was done using Imaris 7.6.4 software for scientific imaging.

Data set [1] relates to Tyrosine hydroxylase (TH) mRNA. The data set can be described thus: Real time RT-PCR of BMPS after toxicant exposure: TH. In kind it is cell-based, human. The note with it: for TH mRNA expression decreased by: 24 hours, 5 μM rotenone, 1000 E M MPP+; for TH gene expression compared to controls: BMPS treated with rotenone or MPP+. As to the method: as §1, §2
A further data set has as its system Alpha-synuclein (SNCA). The data set can be described thus: Real time RT-PCR of BMPS after toxicant exposure: SNCA. Format: cell-based, human. As to conditions: for reduction of SNCA gene expression: 24 hours exposure, sub-cytotoxic concentrations. As to the method:
as §1, §2

Another data set has as its system T-box brain 1 (TBR1). The data set can be described thus: Real time RT-PCR of BMPS after toxicant exposure: TBR1. Format: cell-based, human. The note with it: for reduction of TBR1 gene expression: 24 hours exposure, sub-cytotoxic concentrations; for TBR1 gene expression: non-cytotoxic concentrations. As to the method:
as §1, §2

Another data set relates to Caspase-1 (CASP1). The data set can be described thus: Real time RT-PCR of BMPS after toxicant exposure: Caspase-1. In kind it is cell-based, human. As to the method: as §1
as §2, with “Data were presented as mean±SD, normalized to housekeeping genes and week 0.” left out

For data set [2], the system named is Reactive oxygen species (ROS). The data set can be described thus: OxiSelect In Vitro ROS/RNS Assay in cellular medium of BMPS. Format: cell-based, human. As to conditions: 5 μM rotenone, 1000 μM MPP+. The source says:
This is a fluorescence-based assay measuring the presence of total free radicals within a sample and was used according to the manufacturer's protocol. The quenched fluorogenic dye dichlorodihydrofluorescin-DiOxyQ (DCFH-DiOxyQ) which is similar to the popular 2′,7′-dichlorodihydrofluorescein diacetate (DCFH-DA) is first primed with a quench removal reagent. The resulted highly reactive non-fluorescent DCFH can react with present ROS species in the cell supernatant and is then oxidized to the highly fluorescent DCF (2′,7′-dichlorodihydroxyfluorescein). At every time point, 50 μl of the cell supernatant was added to a 96-well plate in triplicates and was mixed and incubated with the DCFH-DiOxyQ for 45 minutes. The fluorescence intensity was measured with a fluorescence microplate reader at 480 nm/530 nm (excitation/emission) and was proportional to the total ROS/RNS levels within the sample.

The test system of data set [3] is PD-related genes (TH, TBR1, SNCA, KEAP1, NDUFB1, ATP5C1, ATP50 and CASP1). The data set can be described thus: Real time RT-PCR of BMPS after toxicant exposure: PD-related gene panel. In kind it is cell-based, human. The note with it: 5 μM rotenone, 1 mM MPP+.
Source text: Induced pluripotent stem cells (iPSC)-derived human-relevant microphysiological systems (MPS) better mimic the organ level, but are too complex for chemical and drug screening. As described herein, a reproducible 3D brain MPS (BMPS) that differentiates into mature neurons and glial cells (astrocytes and oligodendrocytes), which reproduces the topology of neuronal-glial interactions and connectivity in the central nervous system was developed. […]
as §3, §4

Another data set deals with BMPS. The data set can be described thus: Resazurin reduction cytotoxicity assay of BMPS after rotenone and MPP+ treatment. Format: cell-based, human. The note with it: 24 h exposure. Here is the method: DMSO was used as vehicle control. MPP+ working solutions were prepared in differentiation medium from 30 mM stocks to reach final concentrations of 10, 50, 100, 500, 1,000, 5,000 and 10,000 μM. Four independent experiments in 3 replicates were performed for each experimental condition (control and toxicant exposure for the different time points). […] Resazurin (7-Hydroxy-3H-phenoxazin-3-one 10-oxide) is a blue dye that is reduced into red fluorescent resorufin by redox reactions in viable cells. 100 μl Resazurin (2 mg/ml stock) were added directly to the 6 well plates (2 ml/well). Plates were incubated for 3 h at 37° C., 5% CO2. Subsequently, 50 μl of medium were transferred from each well in triplicates to a 96-well plate and fluorescence was measured at 530 nm/590 nm (excitation/emission) using a multi-well fluorometric reader CytoFluor series 4000 (PerSeptive Biosystems, Inc). Data were presented as mean±SD. Statistical analysis was performed using Dunnett's test.
For orientation: Alamar Blue is a resazurin reagent that responds to reducing activity.

The subject of the next data set is Down's syndrome model. The data set can be described thus: Down's syndrome BMPS exposed to compounds that induce oxidative stress, compared to healthy donor model. As to conditions: Down's syndrome iPSC-derived model.

Source text for Down's syndrome model: FIG. 5A depicts morphological characterization with immunostaining of neurons (MAP2, Syn1, TH, SYP), neural precursor cells (nestin) and glial cells (GFAP) at 8 weeks of differentiation.

For the compound `C[n+]1ccc(-c2ccccc2)cc1` [MPP+, 1-methyl-4-phenylpyridinium], in the data set on NDUFB1, ATP5C1, ATP50, the “Expression of genes related to mitochondrial function (NDUFB1, ATP5C1, ATP50)” value is listed as “tended to decrease in expression but these changes were not statistically significant” and the “Mitochondrial function genes (NDUFB1, ATP5C1, ATP50), MPP+ versus rotenone” value is on record as “down-regulated, more strongly”. Besides, the “KEAP1 expression (oxidative stress marker)” value in the data set with KEAP1 is recorded as “increase in KEAP1 expression”. In addition, the “Disruption of dopaminergic neurons observed by immunohistochemistry” value in the data set with dopaminergic neurons (5 μM rotenone, 100 μM MPP+) was “disrupted dopaminergic neurons”. For the same compound, the “Dopaminergic effects at concentrations selected for further studies” value with dopaminergic neurons (5 μM rotenone, 1000 μM MPP+) was “induced clear and selective dopaminergic effects”. The “Selective disruption of dopaminergic neurons but not of any other cell types (immunohistochemistry)” value with dopaminergic neurons (24 h, 1p M rotenone, 100 μM MPP+, BMPS differentiated 4 weeks) is “Selective disruption of dopaminergic neurons but not of any other cell types”. For the same compound, the “Alterations in other neurofilament 200-positive neurons” value in the data set on dopaminergic neurons (1000 μM MPP+) is reported as “did not show any alterations in other neurofilament 200-positive neurons”. The “Degeneration of dopaminergic neurons” value in the data set with dopaminergic neurons (treatment of BMPS (FIGS. 4E and 4F)) is listed as “induced specific degeneration of dopaminergic neurons”. Besides, the “General cytotoxicity and effect on other neuronal types at higher concentrations” value in the data set on dopaminergic neurons is “led to general cytotoxicity and affected also other neuronal types stained positive for neurofilament 200”. Also, in data set [1], the “TH mRNA expression decreased by” value is listed as 70%±9 and the “TH gene expression compared to controls” value was “decreased TH gene expression compared to controls”. For the same compound, the “reduction of SNCA gene expression” value in the data set on Alpha-synuclein (SNCA) turned out to be 41±40%. For the same compound, the “Statistical significance of change in SNCA expression” value in the data set on Alpha-synuclein (SNCA) (BMPS exposed to 1 mM MPP+) is reported as “no statistically significant changes in SNCA expression”. Further, in the data set on T-box brain 1 (TBR1), the “reduction of TBR1 gene expression” value is reported as 76±22% and the TBR1 gene expression result is listed as “down-regulated”. Also, in the data set on Caspase-1 (CASP1) (24 h exposure to 1 NM MPP+), the “Caspase-1 (CASP1) expression” value was “increased significantly”. Besides, in the data set with Caspase-1 (CASP1) (24 hours exposure to MPP+), the Caspase-1 gene expression entry is “increased”. In addition, the ROS production entry in [2] (12 hours exposure) is listed as “no statistically significant changes”. Also, the ROS production entry in data set [2] (24 hours exposure) is “increase in ROS production”. Moreover, the “Expression of PD-related genes” value in data set [3] is given as “altered expression of PD-related genes”. Moreover, the cytotoxic concentrations in the data set on BMPS was 1000 µM.
For the compound `C[n+]1ccc(-c2cc[n+](C)cc2)cc1` [paraquat], the “Response of Down's syndrome model compared to model from healthy donors” value in the data set with Down's syndrome model was “more sensitive to these compounds than the healthy model”.
For `C=C(C)[C@H]1Cc2c(ccc3c2O[C@@H]2COc4cc(OC)c(OC)cc4[C@@H]2C3=O)O1` [rotenone], in the data set with NDUFB1, ATP5C1, ATP50, the “Expression of genes related to mitochondrial function (NDUFB1, ATP5C1, ATP50)” value is recorded as “tended to decrease in expression but these changes were not statistically significant” and the “Mitochondrial function genes (NDUFB1, ATP5C1, ATP50), MPP+ versus rotenone” value was “down-regulated”. Further, in the data set with dopaminergic neurons (1000 μM MPP+), the “Alterations in other neurofilament 200-positive neurons” value is listed as “did not show any alterations in other neurofilament 200-positive neurons”. Besides, the “General cytotoxicity and effect on other neuronal types at higher concentrations” value in the data set with dopaminergic neurons was “led to general cytotoxicity and affected also other neuronal types stained positive for neurofilament 200”. In [1], the “TH mRNA expression decreased by” value was 84%±11 and the “TH gene expression compared to controls” value is “decreased TH gene expression compared to controls”. Besides, in the data set with Alpha-synuclein (SNCA) (5 μM rotenone, 1 mM MPP+), the SNCA gene expression entry is on record as “Reduction of SNCA”. In addition, in the data set on Alpha-synuclein (SNCA), the “reduction of SNCA gene expression” value is 72±6%. In the data set on T-box brain 1 (TBR1), the “reduction of TBR1 gene expression” value was found to be 70±13% and the TBR1 gene expression result is recorded as “down-regulated”. Moreover, the ROS production entry in [2] (12 hours exposure) was “no statistically significant changes”. Further, the ROS production entry in [2] (24 hours exposure) is given as “increase in ROS production”. In [3], the “Expression of PD-related genes” value is “altered expression of PD-related genes”. The cytotoxic concentrations with BMPS was 10 µM.
